Laboratory results published in patent publication US20220313651A1, “INHIBITORS OF ZIKA VIRUS INFECTION” (priority 2019, published 2022).
Entries after “also recorded” stand apart in the source; their conditions may differ.

Columns and labels:
[1] = system: nine additional ZIKV strains; test: Plaque reduction inhibition assay, nine additional ZIKV strains taken together; type: cell-based; conditions: Zika virus, Vero C1008; range over nine additional strains, Vero E6 cells; read-out: IC50 values against all nine ZIKV strains tested
Experimental: A plaque reduction inhibition assay was carried out to measure the inhibitory activity of Z-medicaments against infections of ZIKV and DENV. […] The compound-virus mixtures were then transferred to Vero E6 cells (10^5/well) and incubated at 37° C. for 1 h.
The identified Z-medicaments were further studied for their broad-spectrum activity against nine additional ZIKV strains, including those isolated from different hosts, namely humans, mosquitos, and rhesus macaques, at different time periods (1947-2016) in different countries, including Mexico, Panama, Columbia, Honduras, Puerto Rico, Thailand, Nigeria, and Uganda.

[2] = Safety of ST087010 in pregnant Ifnar1-/- mice and their pups; type: in vivo
Experimental: FIG. 10A depicts weight changes of pregnant mothers at prenatal and postnatal time points and FIG. 10B depicts weight changes of pups at different postnatal time points. Alanine aminotransferase (ALT) (FIG. 10C) and creatinine (FIG. 10D) levels in sera of pregnant mice were measured by ALT assay and Creatinine assay, respectively, before and 4 h, 1, 3 and 5 days post-last injection of ST087010 or DMSO control. Haematoxylin and eosin (H&E) staining of tissues (FIG. 10E), including liver, spleen, kidney, and brain, from ST087010 or DMSO-treated mothers and their pups. Scale bar, 50 μm.
ST087010 was detected for its safety profiles in pregnant Ifnar1^−/− mice and their fetuses. Briefly, groups of 5 pregnant mice (8-12-week-old, E12-14) were i.p. injected with ST087010 (20 or 40 mg/kg of body weight), or DMSO (control), daily for 4 continual days. […] Sera collected before and 4 h, 1, 3 and 5 days after last injection were measured for ALT and creatinine levels using ALT and Creatinine Assay kits. Two mothers and their pups (at 3-week-old) were sacrificed, and their liver, spleen, kidney, and brain tissues were sectioned, and assessed for histopathological changes by H&E staining.

[3] = system: ZIKV human strain PAN2016; test: ZIKV PAN2016 infection of Ifnar1-/- mice: tissue viral titers, immunofluorescence; type: in vivo; conditions: 20 mg/kg i.p., 5 dpi
From the text: FIG. 8A is a schematic diagram of experimental procedures. […] The treated mice were infected with ZIKV human strain R103451 (200 plaque forming unit (PFU)/mouse), followed by evaluation of survival rate (FIG. 8B) or weight changes (FIG. 8C) for 21 days. The data are expressed as mean±s.e.m. of mice in each group (n=6). In a separate experiment, ST087010 or gossypol-treated mice were infected with ZIKV human strain PAN2016 (200, PFU/mouse). Five days post-infection (dpi), viral titers were detected in tissues by plaque assay (FIG. 8D), and ZIKV or caspase-3 signals were measured in eye (FIG. 8E) and testis ([…]) tissues by immunofluorescence staining. The data are expressed as mean±s.e.m. of mice in each group (n=5), and significant differences among different groups are shown as *, **, and ***. The detection limit is 25 PFU/g. ZIKV and caspase-3 (in FIG. 8E-F) were stained with anti-ZIKV and anti-active caspase-3 antibodies, respectively. Nuclei were stained with DAPI (40,6-diamidino-2-phenylindole). Representative images of immunofluorescence staining are shown. Magnification, 63×, and scale bar, 10 μm.
ST087010 was evaluated for protection against ZIKV infection in ZIKV-susceptible Ifnar1^−/− mice. Briefly, 7-8-week-old male mice were used, and two separate experiments were performed. […] These mice were infected by i.p. injection with ZIKV (human strain R103451, 200 PFU/mouse), and observed daily for weight changes and survival until 21 days post-infection (dpi). […]
Plaque assay was used to detect viral titers in ZIKV-infected tissues. […] ZIKV titers in tissues were measured from ˜40 mg of samples, and thus the detection limit is about 25 PFU/g of tissues.
Immunofluorescence staining was carried out to detect ZIKV and caspase-3 signals in ZIKV-infected mouse tissues. […] The slides were analyzed using a confocal microscope (Zeiss LSM 880) and ZEN software, and fluorescent signals were quantified by ImageJ software. […]

ZIKV EDIII protein = molecular target: T1, ZIKV EDIII protein (Zika virus, UniProt Q32ZE1, D679E/I627V/V603I/V629A); test: SPR binding to ZIKV EDIII protein; conditions: 1:1 binding model, read-out: KD (binding affinity) to ZIKV EDIII protein
T1 construct: human Fc (C)
Experimental: Briefly, ZIKV EDIII protein or NS2B-NS3 protein were immobilized on a sensor chip (CM5) using Amine Coupling Kit. Serially diluted ST087010 was added as analytes, and HBS-EP with 10% DMSO (10 mM HEPES, 150 mM NaCl, 3 mM EDTA, 0.05% Tween-20, 10% DMSO, pH 7.4) was used as running buffer. Biacore BK evaluation software (version 1.1) was applied to analyze the data, and the curve was fitted with a 1:1 binding model.

T1 sequence (Q32ZE1 584-695 V603I/I627V/V629A/D679E): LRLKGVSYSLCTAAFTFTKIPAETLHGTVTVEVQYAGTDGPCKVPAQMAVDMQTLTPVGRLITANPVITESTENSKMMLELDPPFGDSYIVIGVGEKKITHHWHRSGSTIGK

Compound	IC50 [1] [µM]	Serum ALT and creatinine levels vs DMSO-treated mice, low dose ([2]; 20 mg/kg)	Serum ALT and creatinine levels vs DMSO-treated mice, high dose ([2]; 40 mg/kg, 1 day after injection, elevations transient)	Histopathology of liver, spleen, kidney and brain, mothers and pups ([2]; 20 or 40 mg/kg, vs DMSO)	ALT and creatinine levels in sera, before vs after injection ([2]; 20 or 40 mg/kg, before injection and 4 h, 3 or 5 days after last injection)	Viral titers in tissues (plaque assay) ([3]; ZIKV PAN2016 200 PFU/mouse, heart, testis, eye, kidney, brain)	ZIKV+ signals in eye and testis tissues ([3]; ZIKV PAN2016, immunofluorescence)	Caspase-3 staining in eye and testis tissues ([3]; ZIKV PAN2016, immunofluorescence, vs DMSO)	Kd (ZIKV EDIII protein) [µM]
Cc1cc2c(C(C)C)c(O)c(O)c(C=O)c2c(O)c1-c1c(C)cc2c(C(C)C)c(O)c(O)c(C=O)c2c1O [Gossypol, gossypol]	0.21 to 4.31	–	–	–	–	–	–	–	–
Cc1cc2c(C(C)C)c(O)c(O)c(/C=N/n3c(=O)[nH][nH]c3=O)c2c(O)c1-c1c(C)cc2c(C(C)C)c(O)c(O)c(/C=N/n3c(=O)[nH][nH]c3=O)c2c1O [ST087010]	–	no significant difference	significantly different	no abnormal pathological changes; also recorded: no inflammation or cell infiltration	no significant differences	significantly reduced viral titers	undetectable	undetectable or diminished staining	4.95
